How the values were obtained:
[1] = target: MCT4 (Homo sapiens (Human), UniProt O15427); assay: Assay 3: MCT4-mediated lactate transport in MDA-MB-231 breast cancer cells; assay type: cell-based; conditions: MDA-MB-231 cells; lactate transport
How it was run: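 Read-out is BCECF fluorescence tracking the intracellular pH shift from MCT4-mediated lactate/H+ co-transport. Before measurement, MDA-MB-231 cells take up BCECF-AM for 5 min at 37° C, then are washed into Tyrode's Solution, pH 7.4.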

[2] = target: MCT1 (Homo sapiens (Human), UniProt P53985); assay: Assay 4: MCT1-mediated lactate transport in BT20 breast cancer cells; assay type: cell-based; conditions: Table 27
How it was run: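 Transport started with 10 mM L-lactate on BCECF-loaded BT20 cells in Tyrode's Solution, pH 7.4. Dye loading: BCECF-AM ester (30 mM DMSO stock), 5 min at 37° C, then one wash.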

[3] = Metabolic stability in human liver microsomes (in vitro t1/2); assay type: in vitro ADME; conditions: for Human microsome % 60 min: human liver microsomes; for half-life at 2 µM: read-out: Human microsome t1/2, min
How it was run: (§1)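 Test compound (2 μM final) was added to NADPH-supplemented microsomes at 0.5 mg/mL protein and sampled over 60 min (0–60 min time points). In vitro t1/2 was calculated as −0.693/k, with k the slope of ln percent parent remaining, measured by LC-MS/MS, against time.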

[4] = Metabolic stability in rat liver microsomes (in vitro t1/2); assay type: in vitro ADME; conditions: for half-life at 2 µM: read-out: Rat microsome t1/2, min; for Rat microsome % 60 min: rat liver microsomes
How it was run: as §1

[5] = Metabolic stability in mouse liver microsomes (in vitro t1/2); assay type: in vitro ADME; conditions: for half-life at 2 µM: read-out: Mouse microsome t1/2, min; for Mouse microsome % 60 min: mouse liver microsomes
How it was run: as §1

[6] = Pharmacokinetic assay in mouse (IV 3 mg/kg, PO 10 mg/kg); assay type: in vivo; conditions: Male CD1 mouse; for Mouse F: oral bioavailability; for Mouse F / half-life: PO 10 mg/kg; for half-life / Vd: plasma; for half-life: read-out: Mouse t1/2 (converted); for Vd: volume of distribution, read-out: Mouse Vss
Text: (§2) The following are assays that may be used to evaluate the pharmacokinetic properties of Formula (I) in mouse or rat. The assays follow a common procedure recited below.
(§3) 1. […] For PO (oral gavage), DMSO/PEG400 (10:90). Formulations freshly prepared on the day of dosing or prior to dosing. Storage at room temperature.
(§4) 2. Test Species: For Mouse: Male CD1 strain, approximately 6-8 weeks in age, approximately 20-30 g. For Rat: Male Sprague-Dawley strain, approximately 6-8 weeks in age, approximately 200-300 g.
(§5) 3. Dose Level: For IV, 3 mg/kg. For PO, 10 mg/kg.
(§6) 4. Number of animals: 3 per assay.
(§7) 5. PK time points: For IV (plasma): 5 min, 15 min, 1, 2, 4, 6, 8, 24 h post dose. For PO (plasma): 15 min, 30 min, 1, 2, 4, 6, 8, 24 h post dose.
(§8) 6. Blood Sample Collection and Processing. Blood was collected (˜0.2 mL per time point) from jugular vein. Blood of each sample was transferred into plastic micro centrifuge tubes containing anticoagulant of EDTA-K2. Blood samples were centrifuged at 2,000 g for 5 minutes at 4° C. to obtain plasma.
(§9) 7. Samples Analysis: Plasma samples were analyzed using LC/MS/MS method, and pharmacokinetic parameters (half-life: t1/2; oral bioavailability: F; volume of distribution: Vss).

[7] = Pharmacokinetic assay in rat (IV 3 mg/kg, PO 10 mg/kg); assay type: in vivo; conditions: Male Sprague-Dawley rat; for Rat F: oral bioavailability; for Rat F / half-life: PO 10 mg/kg; for half-life / Vd: plasma; for half-life: read-out: Rat t1/2 (converted); for Vd: volume of distribution, read-out: Rat Vss
Text: as §2, §3, §4, §5, §6, §7, §8, §9

[8] = Adjuvant-induced arthritis model in rat: Difference of Weight Bearing test (DWB); assay type: in vivo; conditions: SD rat, CFA-induced arthritis; PO 3 days post CFA; compared to Dexamethasone
[9] = Adjuvant-induced arthritis model in rat: Mechanical Allodynia test (MA, Von Frey); assay type: in vivo; conditions: SD rat, CFA-induced arthritis; PO 3 days post CFA; compared to Dexamethasone
[10] = human liver microsomes 0.5 mg/mL, 2 μM compound
[11] = rat liver microsomes 0.5 mg/mL, 2 μM compound
[12] = mouse liver microsomes 0.5 mg/mL, 2 μM compound

Chain of MCT4 (O15427 whole entry, looked up): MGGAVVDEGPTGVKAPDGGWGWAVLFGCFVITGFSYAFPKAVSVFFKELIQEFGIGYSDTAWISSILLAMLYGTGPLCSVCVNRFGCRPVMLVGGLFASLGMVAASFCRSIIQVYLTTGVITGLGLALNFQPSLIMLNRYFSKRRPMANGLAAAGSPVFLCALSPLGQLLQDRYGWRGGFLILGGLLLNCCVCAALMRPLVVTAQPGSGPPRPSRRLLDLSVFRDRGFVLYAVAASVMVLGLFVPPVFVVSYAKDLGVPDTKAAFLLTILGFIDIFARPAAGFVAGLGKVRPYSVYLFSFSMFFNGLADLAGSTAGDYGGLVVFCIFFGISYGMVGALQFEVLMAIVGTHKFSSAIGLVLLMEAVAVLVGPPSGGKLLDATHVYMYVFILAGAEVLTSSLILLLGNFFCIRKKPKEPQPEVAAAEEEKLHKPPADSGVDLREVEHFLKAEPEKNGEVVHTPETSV
Chain of MCT4 (P35613 whole entry partner, looked up): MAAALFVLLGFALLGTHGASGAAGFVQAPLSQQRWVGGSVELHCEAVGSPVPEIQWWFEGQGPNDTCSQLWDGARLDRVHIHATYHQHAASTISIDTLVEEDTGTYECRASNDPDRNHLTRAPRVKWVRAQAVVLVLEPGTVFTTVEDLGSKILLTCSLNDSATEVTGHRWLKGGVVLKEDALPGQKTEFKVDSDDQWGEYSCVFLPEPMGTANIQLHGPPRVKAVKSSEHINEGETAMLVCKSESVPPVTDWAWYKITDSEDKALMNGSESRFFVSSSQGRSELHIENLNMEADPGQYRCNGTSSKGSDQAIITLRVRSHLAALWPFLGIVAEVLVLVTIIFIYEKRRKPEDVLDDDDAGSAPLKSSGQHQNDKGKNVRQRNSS
Chain of MCT1 (P53985 whole entry): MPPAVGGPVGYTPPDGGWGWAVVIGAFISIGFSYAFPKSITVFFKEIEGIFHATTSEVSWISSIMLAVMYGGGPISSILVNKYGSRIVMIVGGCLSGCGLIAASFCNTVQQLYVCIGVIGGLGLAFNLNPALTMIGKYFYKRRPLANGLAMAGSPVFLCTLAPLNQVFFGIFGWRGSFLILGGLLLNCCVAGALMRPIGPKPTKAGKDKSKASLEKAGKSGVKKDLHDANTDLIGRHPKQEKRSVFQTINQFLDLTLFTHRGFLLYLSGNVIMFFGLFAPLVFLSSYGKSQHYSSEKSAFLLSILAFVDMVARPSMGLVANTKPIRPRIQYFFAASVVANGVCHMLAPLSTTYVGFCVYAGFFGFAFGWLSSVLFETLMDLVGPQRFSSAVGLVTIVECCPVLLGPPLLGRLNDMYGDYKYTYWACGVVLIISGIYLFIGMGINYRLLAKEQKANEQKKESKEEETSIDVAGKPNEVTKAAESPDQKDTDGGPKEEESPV
Chain of MCT1 (P35613 140-385 partner): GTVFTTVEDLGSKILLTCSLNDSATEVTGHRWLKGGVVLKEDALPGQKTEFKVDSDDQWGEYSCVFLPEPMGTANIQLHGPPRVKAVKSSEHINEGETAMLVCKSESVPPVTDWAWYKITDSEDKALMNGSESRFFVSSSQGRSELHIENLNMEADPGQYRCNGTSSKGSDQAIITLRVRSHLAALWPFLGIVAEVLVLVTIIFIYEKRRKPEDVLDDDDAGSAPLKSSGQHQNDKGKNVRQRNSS

Structure (SMILES) | IC50 [1] [nM] | IC50 [2] [nM] | Human microsome t1/2, min [3, 10] | Human microsome % 60 min [3] [%] | half-life at 2 µM [4, 11] [h] | Rat microsome % 60 min [4] [%] | half-life at 2 µM [5, 12] [h] | Mouse microsome % 60 min [5] [%] | Mouse F [6] [%] | half-life [6] [h] | Vd [6] [L/kg] | Rat F [7] [%] | half-life [7] [h] | Vd [7] [L/kg] | Difference in Weight Bearing, Minimal Efficacious Dose [8] [mg/kg] | Mechanical Allodynia (Von Frey), Minimal Efficacious Dose [9] [mg/kg] | half-life at 2 µM [3, 10] [h] | Rat microsome t1/2, min [4, 11] | Mouse microsome t1/2, min [5, 12]
CCn1ncc2ccc(-c3cc(CO[C@](C)(CC)C(=O)O)nn3Cc3ccccc3Cl)cc21 [Example 220, (2R)-2-([1-[(2-chlorophenyl)methyl]-5-(1-ethyl-1H-indazol-6-yl)-1H-pyrazol-3-yl]methoxy)-2-methylbutanoic acid] | 0.54 | 33000 | ∞ | 105 | 4.87 | 86 | 17.3 | 102 | 100 | 6.9 | 1.7 | 29 | 2.8 | 0.68 | 3 | 3 |  |  | 
CC(C)(OCc1cc(-c2cccc(OC3CC3)c2)n(-c2ccccc2N2CCC2)n1)C(=O)O [Example 232, 2-([1-[2-(Azetidin-1-yl)phenyl]-5-(3-cyclo-propoxyphenyl)-1H-pyrazol-3-yl]methoxy)-2-methylpropanoic acid] | 2.1 | 29000 |  | 65 | 1.17 | 50 | 1.22 | 59 | 56 | 3.1 | 0.21 | 52 | 2.6 | 0.15 | 1 | 1 | 1.62 |  | 
COc1cccc(-c2cc(COC(C)(C)C(=O)O)nn2Cc2ccccc2Cl)c1 [Example 14, 2-([1-[(2-Chlorophenyl)methyl]-5-(3-methoxyphenyl)1H-pyrazol-3-yl]methoxy)-2-methylpropanoic acid] |  |  |  | 82 |  |  | 21.7 | 95 | 100 | 5.4 | 0.79 | 64 | 3.8 | 1.3 | 30 | 30 | 4.08 |  | 
CC(C)COc1cccc(-c2cc(COC(C)(C)C(=O)O)nn2-c2cccc3cnn(C)c23)c1 [Example 170, 2-methyl-2-([1-(1-methyl-1H-indazol-7-yl)-5-[3-(2-methylpropoxy)phenyl]-1H-pyrazol-3-yl]methoxy]propanoic acid] | 2 | 32000 |  | 87 |  | 95 |  | 99 | 100 | 2.6 | 2 | 18 | 2.4 | 1.1 | 3 | 3 | 7.85 | ∞ | ∞
